These results are taken from paper PMC9127807, “Echinocandins Localized to the Target-Harboring Cell Surface Are Not Degraded but Those Entering the Vacuole Are” (ACS Chemical Biology, 2022).

The test system of one data set is C. albicans ATCC 10231. As to conditions: strain D, echinocandin-susceptible; YPAD broth, 24 h, 30 °C, OD600 reduced by ≥75%. The protocol:
(§1) Candida strains were streaked from glycerol stock onto YPAD agar plates and grown for 24 h at 30 °C. Colonies were suspended in 1 mL of PBS and diluted to an optical density of 2 × 10^–4 at 600 nm (OD600) in flat-bottom 96-well microplates (Corning) with YPAD broth containing dilutions of each tested compound at concentrations ranging from 64 to 0.008 μg/mL in twofold dilutions. Control wells with yeast cells but no drug and blank wells that contained only YPAD were prepared. MIC values (Table S2) were determined after 24 h at 30 °C by measuring the OD600 using a plate reader (Infinite M200 PRO, Tecan). MIC values were defined as the point at which the OD600 was reduced by ≥75% compared to the no-drug wells. Each concentration was tested in triplicate, and the results were confirmed by two independent sets of experiments.

In another data set the test system is C. albicans ATCC 24433. The conditions noted are these: strain C, echinocandin-susceptible; YPAD broth, 24 h, 30 °C, OD600 reduced by ≥75%. The protocol: as §1
The next data set has as its system C. albicans ATCC 90028. As to conditions: strain E, echinocandin-susceptible; YPAD broth, 24 h, 30 °C, OD600 reduced by ≥75%. As to the method: as §1
The test system of data set [1] is C. albicans DPL1016 (DP-A15-10). The conditions noted are these: strain F, echinocandin resistant FKS mutation; YPAD broth, 24 h, 30 °C, OD600 reduced by ≥75%. As to the method: as §1
The test system of a further data set is C. albicans SC5314. As to conditions: strain A, echinocandin-susceptible; YPAD broth, 24 h, 30 °C, OD600 reduced by ≥75%; triplicate, two independent experiments. As to the method:
as §1

In data set [2] the test system is C. albicans T-2068 (DP-C42). As to conditions: strain G, echinocandin resistant FKS mutation; YPAD broth, 24 h, 30 °C, OD600 reduced by ≥75%. As to the method: as §1
The next data set has as its system C. glabrata ATCC 2001. The conditions noted are these: strain I, echinocandin-susceptible; YPAD broth, 24 h, 30 °C, OD600 reduced by ≥75%. The protocol: as §1
The subject of a further data set is C. glabrata ATCC 66032. The conditions noted are these: strain J, echinocandin-susceptible; YPAD broth, 24 h, 30 °C, OD600 reduced by ≥75%. The protocol: as §1
For another data set, the system named is C. glabrata ATCC 90030. As to conditions: strain K, echinocandin-susceptible; YPAD broth, 24 h, 30 °C, OD600 reduced by ≥75%. The protocol:
as §1

Another data set relates to C. glabrata EF1620. As to conditions: strain H, echinocandin-susceptible; YPAD broth, 24 h, 30 °C, OD600 reduced by ≥75%. The protocol: as §1
The subject of a further data set is C. glabrata T-192 (1775). As to conditions: strain L, echinocandin-susceptible; YPAD broth, 24 h, 30 °C, OD600 reduced by ≥75%. The protocol:
as §1

Another data set concerns C. glabrata TGL00275. As to conditions: strain M, echinocandin resistant FKS mutation; YPAD broth, 24 h, 30 °C, OD600 reduced by ≥75%. The protocol:
as §1

A further data set has as its system C. glabrata TGL00277. As to conditions: strain N, echinocandin resistant FKS mutation; YPAD broth, 24 h, 30 °C, OD600 reduced by ≥75%. The protocol: as §1
The next data set concerns C. albicans SN152. As to the kind of experiment: MIC broth double-dilution assay. The format is cell-based, Candida albicans. The conditions noted are these: strain B, echinocandin-susceptible; YPAD broth, 24 h, 30 °C, OD600 reduced by ≥75%. As to the method: as §1, with “Colonies” for “Candida strains were streaked from glycerol stock onto YPAD agar plates and grown for 24 h at 30 °C. Colonies”

The conditions of data set [3]: incubation in human plasma for 44 h at 37 °C; cited from earlier work. The text has this: Intending to develop echinocandins with improved chemical stability under physiological conditions, Cidara Therapeutics developed rezafungin (RZF), a novel ANF derivative with distinctive pharmacokinetic and pharmacodynamic profiles, which entered phase III trials in October 2018 (Figure 1).[18]−[21] […] Instead of the daily intravenous administration regime used for the other three echinocandins, RZF can be administered intravenous ...

The structures appear in SMILES notation. Converted amounts (≈) assume the structure as drawn. Starred links: 1 amine or outer side, 2 acyl side, 3 side chain; linkers in the order of their positions; H or OH if unused. Positions of bridges follow the written chain, without caps; N, C: chain ends. Non-standard residues stand in square brackets, D forms with d. Residues, ends and D or L forms follow the SMILES beside them. *: point of attachment. X1 = O=C([C@@H](N[*:1])[C@H](O)[C@@H](O)c1ccc(OCc2cn(CCCNc3ccc([N+](=O)[O-])c4nonc34)nn2)cc1)[*:2]; Orn(4R-OH,5R-OCH2CH2NMe3+) = C[N+](C)(C)CCO[C@@H](N[*:3])[C@H](O)C[C@H](N[*:1])C(=O)[*:2]; pTerphenylCO(4''-OnC5H11) = CCCCCOc1ccc(-c2ccc(-c3ccc(C(=O)*)cc3)cc2)cc1; Orn(4R-OH,5R-OH) = O=C([C@H](C[C@@H](O)[C@@H](O)N[*:3])N[*:1])[*:2]; hTyr(3S-OH,4S-OH) = N[C@H](C(=O)O)[C@H](O)[C@@H](O)c1ccc(O)cc1; Pro(3S-OH,4S-Me) = C[C@H]1CN[C@H](C(=O)O)[C@H]1O; Hyp = O=C(O)[C@@H]1C[C@@H](O)CN1

For the molecule `CCCCCOc1ccc(-c2ccc(-c3ccc(C(=O)N[C@H]4C[C@@H](O)[C@@H](O)NC(=O)[C@@H]5[C@@H](O)[C@@H](C)CN5C(=O)[C@H]([C@@H](C)O)NC(=O)[C@H]([C@H](O)[C@@H](O)c5ccc(O)cc5)NC(=O)[C@@H]5C[C@@H](O)CN5C(=O)[C@H]([C@@H](C)O)NC4=O)cc3)cc2)cc1` [ANF, anidulafungin, reference compound] ({pTerphenylCO(4''-OnC5H11)}-[Orn(4R-OH,5R-OH)]T[Hyp][hTyr(3S-OH,4S-OH)]T[Pro(3S-OH,4S-Me)]; lactam 1-C), the minimal inhibitory concentration (MIC) in the data set on C. albicans ATCC 10231 was 0.016 µg/mL (≈ 0.014 µM); in the data set with C. albicans ATCC 24433 it was 0.008 µg/mL (≈ 0.00702 µM); against C. albicans ATCC 90028, 0.016 µg/mL (≈ 0.014 µM); in data set [1], 4 µg/mL (≈ 3.51 µM); with C. albicans SC5314 it was 0.008 µg/mL (≈ 0.00702 µM); in [2], 4 µg/mL (≈ 3.51 µM). Further, the MIC was found to be 0.008 µg/mL (≈ 0.00702 µM) against C. glabrata ATCC 2001; 0.016 µg/mL (≈ 0.014 µM) against C. glabrata ATCC 66032; 0.016 µg/mL (≈ 0.014 µM) against C. glabrata ATCC 90030; 0.008 µg/mL (≈ 0.00702 µM) against C. glabrata EF1620; 0.008 µg/mL (≈ 0.00702 µM) against C. glabrata T-192 (1775); 4 µg/mL (≈ 3.51 µM) against C. glabrata TGL00275. For the same molecule, the MIC against C. glabrata TGL00277 was more than 64 µg/mL; in the data set on C. albicans SN152 it was 0.008 µg/mL (≈ 0.00702 µM). The “percent of intact drug” value in data set [3] is listed as 7%.

Take `CCCCCOc1ccc(-c2ccc(-c3ccc(C(=O)N[C@H]4C[C@@H](O)[C@@H](OCC[N+](C)(C)C)NC(=O)[C@@H]5[C@@H](O)[C@@H](C)CN5C(=O)[C@H]([C@@H](C)O)NC(=O)[C@H]([C@H](O)[C@@H](O)c5ccc(OCc6cn(CCCNc7ccc([N+](=O)[O-])c8nonc78)nn6)cc5)NC(=O)[C@@H]5C[C@@H](O)CN5C(=O)[C@H]([C@@H](C)O)NC4=O)cc3)cc2)cc1` [Probe 6] ({pTerphenylCO(4''-OnC5H11)}-[Orn(4R-OH,5R-OCH2CH2NMe3+)]T[Hyp][X1]T[Pro(3S-OH,4S-Me)]; lactam 1-C): the MIC against C. albicans ATCC 10231 was 0.5 µg/mL; against C. albicans ATCC 24433, 0.5 µg/mL; with C. albicans ATCC 90028, 0.5 µg/mL; in data set [1] it was more than 64 µg/mL; in the data set on C. albicans SC5314, 0.5 µg/mL; in data set [2], more than 64 µg/mL. Further, the MIC is 1 µg/mL in the data set on C. glabrata ATCC 2001; 1 µg/mL in the data set on C. glabrata ATCC 66032; 1 µg/mL in the data set on C. glabrata ATCC 90030; 0.5 µg/mL against C. glabrata EF1620; 0.5 µg/mL against C. glabrata T-192 (1775); more than 64 µg/mL in the data set on C. glabrata TGL00275. In addition, the MIC is more than 64 µg/mL against C. glabrata TGL00277 and 0.5 µg/mL with C. albicans SN152.

Take `CC[C@H](C)C[C@H](C)CCCCCCCCC(=O)N[C@H]1C[C@@H](O)[C@@H](NCCN)NC(=O)[C@@H]2[C@@H](O)CCN2C(=O)[C@H]([C@H](O)CCN)NC(=O)[C@H]([C@H](O)[C@@H](O)c2ccc(OCc3cn(CCCNc4ccc([N+](=O)[O-])c5nonc45)nn3)cc2)NC(=O)[C@@H]2C[C@@H](O)CN2C(=O)[C@H]([C@@H](C)O)NC1=O` [Probe 2]: the MIC was 2 µg/mL (≈ 1.43 µM) with C. albicans ATCC 10231; 2 µg/mL (≈ 1.43 µM) against C. albicans ATCC 24433; 2 µg/mL (≈ 1.43 µM) in the data set with C. albicans ATCC 90028; more than 64 µg/mL in data set [1]; 1 µg/mL (≈ 0.717 µM) with C. albicans SC5314; 64 µg/mL (≈ 45.9 µM) in data set [2]. For the same molecule, the MIC is 2 µg/mL (≈ 1.43 µM) in the data set with C. glabrata ATCC 2001; 4 µg/mL (≈ 2.87 µM) against C. glabrata ATCC 66032; 4 µg/mL (≈ 2.87 µM) in the data set on C. glabrata ATCC 90030; 4 µg/mL (≈ 2.87 µM) against C. glabrata EF1620; 2 µg/mL (≈ 1.43 µM) against C. glabrata T-192 (1775); more than 64 µg/mL against C. glabrata TGL00275. The minimal inhibitory concentration (MIC) was more than 64 µg/mL against C. glabrata TGL00277 and 1 µg/mL (≈ 0.717 µM) against C. albicans SN152.
